Assay results from patent US6572603B1, “Vitamin d solution holder and containers for transfusions” (Otsuka Pharmaceutical Factory, Inc., priority 1998, dated 2003).
Counter-ions that a name gives are not always drawn.

Assays:
[1] = Vitamin contents in transfusion fluid containers of Examples 4 and 5 after autoclaving and 40° C. four-month storage, bioassay (vitamin B12, biotin) or HPLC (other vitamins); type: physicochemical
Procedure: In a holder produced from a three-layered film (the thickness of each layer: 10 μm) in which the outer and the inner layers are made of polyethylene and the intermediate layer is made of ethylene.tetracyclododecene copolymer (trade name: Apel, product of Mitsui Chemicals, Inc.), solution (C) (4 ml) was charged and the inlet was melt-sealed. In a two-compartment container, the prepared holder was attached to one of the compartments. […] The above-described transfusion fluid containers in Examples 4 and 5 were allowed to stand at 40° C. for four months after autoclaving. Thereafter, the contents of vitamins in the containers were measured through a bioassay according to Pharmacopoeia of Japan (for vitamin B12 and biotin) or through HPLC (for other vitamins). The content of each vitamin is represented by a percentage (%) of the initially incorporated amount.

[2] = Vitamin content of solution (C) in polyolefin holders after autoclaving and storage at 40° C. for four months, measured through HPLC (Example 3); type: physicochemical
Procedure: Solution (C) (4 ml) prepared in Example 1 was charged into each of holders made of the materials shown in Table 3, to thereby obtain a holder which contains a solution of vitamin D3. Each of these holders containing a solution of vitamin D3 was subjected to autoclaving and wrapped in a nylon multi-layered-film bag together with a deoxidizing agent (trade name: Ageless, product of Mitsubishi Gas Chem. Co., Inc.). The thus-wrapped holders were allowed to stand at 40° C. for four months. Thereafter, the content of each vitamin in each holder was measured through HPLC. The content of each vitamin is represented by a percentage (%) of the initially incorporated amount.

[3] = Example 4 transfusion fluid container, 40° C., 4 months
[4] = Example 4 transfusion fluid container, immediately after sterilization
[5] = Example 5 transfusion fluid container, 40° C., 4 months
[6] = Example 5 transfusion fluid container, immediately after sterilization
[7] = holder No. 1, polyethylene, 30 μm, resin 7.4 cm^3 per μmol vitamin D, 40° C., 4 months
[8] = holder No. 1, polyethylene, 30 μm, resin 7.4 cm^3 per μmol vitamin D, after sterilization
[9] = holder No. 2, polyethylene, 100 μm, resin 18.5 cm^3 per μmol vitamin D, 40° C., 4 months
[10] = holder No. 2, polyethylene, 100 μm, resin 18.5 cm^3 per μmol vitamin D, after sterilization
[11] = holder No. 3, polypropylene, 30 μm, resin 7.4 cm^3 per μmol vitamin D, 40° C., 4 months
[12] = holder No. 3, polypropylene, 30 μm, resin 7.4 cm^3 per μmol vitamin D, after sterilization
[13] = holder No. 4, polyethylene, 250 μm, resin 123.2 cm^3 per μmol vitamin D, 40° C., 4 months
[14] = holder No. 4, polyethylene, 250 μm, resin 123.2 cm^3 per μmol vitamin D, after sterilization
[15] = holder No. 5, polypropylene, 250 μm, resin 123.2 cm^3 per μmol vitamin D, 40° C., 4 months
[16] = holder No. 5, polypropylene, 250 μm, resin 123.2 cm^3 per μmol vitamin D, after sterilization

Compound	Vitamin content, percentage (%) of the initially incorporated amount [1, 3]	Vitamin content, percentage (%) of the initially incorporated amount [1, 4]	Vitamin content, percentage (%) of the initially incorporated amount [1, 5]	Vitamin content, percentage (%) of the initially incorporated amount [1, 6]	Vitamin content (%) of initially incorporated amount [2, 7]	Vitamin content (%) of initially incorporated amount [2, 8]	Vitamin content (%) of initially incorporated amount [2, 9]	Vitamin content (%) of initially incorporated amount [2, 10]	Vitamin content (%) of initially incorporated amount [2, 11]	Vitamin content (%) of initially incorporated amount [2, 12]	Vitamin content (%) of initially incorporated amount [2, 13]	Vitamin content (%) of initially incorporated amount [2, 14]	Vitamin content (%) of initially incorporated amount [2, 15]	Vitamin content (%) of initially incorporated amount [2, 16]
O=C(O)CCCC[C@@H]1SC[C@@H]2NC(=O)N[C@@H]21 [Biotin, biotin]	99.8%	100.4%	100.3%	98.7%										
Nc1nc2ncc(CNc3ccc(C(=O)N[C@@H](CCC(=O)O)C(=O)O)cc3)nc2c(=O)[nH]1 [Folic acid, folic acid]	97.5%	97.8%	99.1%	98.3%										
NC(=O)c1cccnc1 [Nicotinamide, nicotinamide]	97.8%	98.6%	98.5%	98.2%										
CC(C)(CO)[C@@H](O)C(=O)NCCCO [Panthenol, panthenol]	96.9%	97.4%	97.6%	98.5%										
Cc1ncc(CO)c(CO)c1O.Cl [Pyridoxine hydrochloride (B6), pyridoxine hydrochloride]	100.1%	100.5%	99.8%	99.7%										
Cc1ncc(C[n+]2csc(CCO)c2C)c(N)n1 [Thiamin hydrochloride (B1), thiamin hydrochloride]	87.4%	93.8%	86.6%	93.5%										
cyanocobalamin [Cyanocobalamin (B12)]	89.2%	91.3%	90.5%	96.5%										

Next, values leading:

Vitamin content, percentage (%) of the initially incorporated amount [1, 3]	Vitamin content, percentage (%) of the initially incorporated amount [1, 4]	Vitamin content, percentage (%) of the initially incorporated amount [1, 5]	Vitamin content, percentage (%) of the initially incorporated amount [1, 6]	Vitamin content (%) of initially incorporated amount [2, 7]	Vitamin content (%) of initially incorporated amount [2, 8]	Vitamin content (%) of initially incorporated amount [2, 9]	Vitamin content (%) of initially incorporated amount [2, 10]	Vitamin content (%) of initially incorporated amount [2, 11]	Vitamin content (%) of initially incorporated amount [2, 12]	Vitamin content (%) of initially incorporated amount [2, 13]	Vitamin content (%) of initially incorporated amount [2, 14]	Vitamin content (%) of initially incorporated amount [2, 15]	Vitamin content (%) of initially incorporated amount [2, 16]	Compound
84.5%	87.2%	83.9%	86.5%	80.7%	91.1%	81.3%	90.9%	81.2%	90.7%	78.3%	89.1%	77.8%	88.9%	CCCCCCCCCCCCCCCC(=O)OC/C=C(C)/C=C/C=C(C)/C=C/C1=C(C)CCCC1(C)C [Vitamin A, retinol palmitate]
83.2%	86.5%	84.3%	85.9%	90.7%	94.8%	91.2%	96.3%	91.0%	95.4%	90.9%	94.6%	91.2%	95.3%	Cc1cc2nc3c(=O)[nH]c(=O)nc-3n(C[C@H](O)[C@H](O)[C@H](O)COP(=O)(O)O)c2cc1C [Vitamin B2, sodium riboflavin phosphate]
98.3%	98.7%	97.5%	97.8%	94.3%	96.2%	95.4%	97.1%	94.2%	97.3%	94.8%	97.5%	93.1%	96.8%	O=C1O[C@H]([C@@H](O)CO)C(O)=C1O [Vitamin C, ascorbic acid]
95.1%	94.9%	94.8%	95.3%	98.3%	98.7%	99.7%	99.4%	97.3%	97.6%	95.6%	98.2%	95.3%	97.6%	CC(=O)Oc1c(C)c(C)c2c(c1C)CCC(C)(CCC[C@H](C)CCC[C@H](C)CCCC(C)C)O2 (some centres unmarked) [Vitamin E, tocopherol acetate]
95.3%	96.2%	95.4%	95.8%	91.3%	95.4%	90.8%	94.7%	91.3%	96.1%	89.1%	94.3%	88.7%	93.9%	CC1=C(C/C=C(\C)CCC[C@H](C)CCC[C@H](C)CCCC(C)C)C(=O)c2ccccc2C1=O [Vitamin K, phytonadione]
